Reference: PubChem BioAssay (NCI)
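The compound was tested at five concentrations on cells cultured in 96-well plates, with a 48-hour exposure period. GI50 = concentration required for 50% inhibition of growth. TGI marks complete inhibition of growth.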

Columns and labels:
Test in all cases: NCI tumour cell line growth inhibition, 48 h
[1] = test system: SK-MEL-5 melanoma
[2] = test system: NCI-H23 lung
[3] = test system: OVCAR-3 ovarian
[4] = test system: NCI-H522 lung
[5] = test system: MCF7 breast
[6] = test system: U251 CNS
[7] = test system: UACC-257 melanoma
[8] = test system: BT-549 breast
[9] = test system: A498 renal
[10] = test system: M14 melanoma

| SMILES | GI50 [1] | TGI [1] | GI50 [2] | TGI [2] | GI50 [3] | TGI [3] | GI50 [4] | TGI [4] | GI50 [5] | TGI [5] | GI50 [6] | TGI [6] | GI50 [7] | TGI [7] | GI50 [8] | TGI [8] | GI50 [9] | TGI [9] | TGI [10] | GI50 [10] |
| --- | --- | --- | --- | --- | --- | --- | --- | --- | --- | --- | --- | --- | --- | --- | --- | --- | --- | --- | --- | --- |
| CC1COCCN1CC#CCOC(=O)c1cc2ccccc2oc1=O (configuration not stated) | > 100 µM | > 100 µM | > 100 µM | > 100 µM | > 100 µM | > 100 µM | > 100 µM | > 100 µM | > 100 µM | > 100 µM | > 100 µM | > 100 µM | > 100 µM | > 100 µM | > 100 µM | > 100 µM | – | – | – | – |
| O=C(CSc1ncc(-c2ccccc2)n1-c1ccccc1)Nc1ccc(-c2nc3ccccc3s2)cc1 | > 100 µM | > 100 µM | 20.4 µM | > 100 µM | 7.22 µM | > 100 µM | 8.11 µM | > 100 µM | 3.98 µM | > 100 µM | 2.42 µM | 5.56 µM | – | – | – | – | 39.7 µM | > 100 µM | – | – |
| c1ccc2c(c1)N=C(c1ccc3ccccc3c1)CC(c1cccc3ccccc13)S2 (configuration not stated) | – | > 100 µM | – | > 100 µM | – | > 100 µM | – | 75.4 µM | – | – | – | > 100 µM | – | > 100 µM | – | – | – | 75.4 µM | > 100 µM | – |
| COc1ccc2c(c1)C(=O)c1c-2c(N2CCN(C(=O)CCNCCNCCO)CC2)nc2ccccc12 | 18 µM | 33.8 µM | – | – | 20.6 µM | 43.2 µM | 17.5 µM | 46.8 µM | 7.27 µM | 25.9 µM | 15.8 µM | 33.8 µM | 20.8 µM | 42.1 µM | 7.14 µM | 21.2 µM | 18.7 µM | 34.4 µM | 24.1 µM | 11.8 µM |
| N#CC1C(=O)NC(=O)C1=O (configuration not stated) | – | > 100 µM | – | > 100 µM | – | > 100 µM | – | > 100 µM | – | – | – | > 100 µM | – | > 100 µM | – | – | – | > 100 µM | > 100 µM | – |
| CCCCCCCCCCCC(=O)OC(COC(N)=O)COc1ccc(Cl)cc1 (configuration not stated) | – | 32.8 µM | – | 46 µM | – | 31.6 µM | – | 31.5 µM | – | – | – | 52.7 µM | – | 51 µM | – | – | – | > 100 µM | 35 µM | – |
| COC(=O)NC(=O)c1cn(C2CCCCC2)c(=O)[nH]c1=O | – | > 100 µM | – | > 100 µM | – | > 100 µM | – | > 100 µM | – | – | – | > 100 µM | – | > 100 µM | – | – | – | > 100 µM | > 100 µM | – |
| O=C1N=C(Nc2nc(-c3csc(NC4=NC(=O)/C(=C\c5ccc(Cl)cc5)S4)n3)cs2)S/C1=C/c1ccc(Cl)cc1 | 3.83 µM | 41 µM | 13.5 µM | > 50 µM | 10.5 µM | 37.3 µM | 24.7 µM | > 50 µM | 3.97 µM | > 50 µM | 4.83 µM | > 50 µM | 5.14 µM | 18.1 µM | – | – | – | – | 11.5 µM | 3.03 µM |
| O=C(O)c1cn(C2CC2)c2cc(N3CCN(Cc4ccc5ccccc5c4O)CC3)c(F)cc2c1=O | 3.78 µM | > 100 µM | 3.51 µM | > 100 µM | – | – | – | – | 3.63 µM | > 100 µM | 4.87 µM | > 100 µM | – | – | – | – | 2.09 µM | 4.67 µM | > 100 µM | 3.18 µM |
| CC1(C)CC(N2CCN(C3CC(C)(C)NC(C)(C)C3)CC2)CC(C)(C)N1 | – | > 100 µM | – | > 100 µM | – | > 100 µM | – | > 100 µM | – | – | – | > 100 µM | – | > 100 µM | – | – | – | > 100 µM | > 100 µM | – |
| NCC1(N2CCOCC2)C2CCCC21CNc1ccccc1 (configuration not stated) | – | > 100 µM | – | > 100 µM | – | > 100 µM | – | > 100 µM | – | – | – | > 100 µM | – | > 100 µM | – | – | – | – | > 100 µM | – |
| O=C1c2ccccc2C(=O)c2c1ccc1c2N=C(c2ccc(Br)cc2)CC(c2cccc3ccccc23)N1 (configuration not stated) | – | > 100 µM | – | > 100 µM | – | > 100 µM | – | > 100 µM | – | – | – | > 100 µM | – | > 100 µM | – | – | – | – | > 100 µM | – |
| N=C1/C(=C2\Nc3ccccc3S2)CC(=O)N1c1ccc(SC(F)F)cc1 | 5.85 µM | > 100 µM | 18.7 µM | > 100 µM | 17.1 µM | > 100 µM | 17.3 µM | > 100 µM | 9.35 µM | > 100 µM | 2.74 µM | 29.7 µM | > 100 µM | > 100 µM | > 100 µM | > 100 µM | – | – | > 100 µM | 33.2 µM |
| N#Cc1c(N)c(C#N)c2c(c1-c1ccc(Cl)cc1)COc1ccc(F)cc1-2 | 16.4 µM | > 50 µM | 7.11 µM | 39.2 µM | 16.2 µM | > 50 µM | 2.75 µM | 14.5 µM | 16.5 µM | > 50 µM | 22 µM | > 50 µM | > 50 µM | > 50 µM | – | – | 7.89 µM | 28 µM | > 50 µM | 16.7 µM |
| NC(=O)c1ncn(Cc2ccccc2)c1CNC(N)=S | – | > 100 µM | – | > 100 µM | – | > 100 µM | – | – | – | – | – | > 100 µM | – | – | – | – | – | – | > 100 µM | – |
| CC1(C)OC(=O)C(=Cc2ccc([N+](=O)[O-])s2)C(=O)O1 | – | 30 µM | – | 39.1 µM | – | 23.2 µM | – | – | – | 68.4 µM | – | 30.4 µM | – | 35.8 µM | – | 26.8 µM | – | 54.7 µM | 26.5 µM | – |
| O=C(NC1C(=O)NNC1c1ccccc1Cl)c1ccccc1 (configuration not stated) | – | > 100 µM | – | > 100 µM | – | > 100 µM | – | > 100 µM | – | – | – | > 100 µM | – | > 100 µM | – | – | – | > 100 µM | > 100 µM | – |
| ClCCCCOC1CCCCO1 (configuration not stated) | – | > 100 µM | – | > 100 µM | – | > 100 µM | – | > 100 µM | – | – | – | > 100 µM | – | > 100 µM | – | – | – | > 100 µM | > 100 µM | – |
| Cn1cnc([N+](=O)[O-])c1Sc1nc2ccc([N+](=O)[O-])cc2[nH]1 | – | 30.6 µM | – | 72 µM | – | > 100 µM | – | – | – | – | – | > 100 µM | – | 33.5 µM | – | – | – | 83.4 µM | > 100 µM | – |
| N=C1C(c2nc3ccccc3s2)=C(O)CN1c1cc(Cl)cc(Cl)c1 | > 100 µM | > 100 µM | > 100 µM | > 100 µM | 88.2 µM | > 100 µM | – | – | > 100 µM | > 100 µM | 32.3 µM | > 100 µM | 40.2 µM | > 100 µM | > 100 µM | > 100 µM | > 100 µM | > 100 µM | – | – |
| Cc1ccc(NC(=O)C(=O)CC(=O)c2ccccc2)cc1C | – | > 100 µM | – | > 100 µM | – | > 100 µM | – | > 100 µM | – | – | – | > 100 µM | – | > 100 µM | – | – | – | > 100 µM | > 100 µM | – |
